Test results published in patent publication US11883389B2, “Formulations of 2-(4-chlorophenyl)-N-((2-(2,6- dioxopiperidin-3-yl)-1-oxoisoindolin-5-yl)methyl)-2,2-difluoroacetamide” (Celgene Corporation, priority 2016, dated 2024).

Assays:
[1] = hygroscopicity / dynamic vapor sorption analysis; format: physicochemical; conditions: for water uptake (DVS): RH increased from about 0% to about 90% RH
Experimental: In certain embodiments, Form A is characterized by dynamic vapor sorption analysis. […] In certain embodiments, Form A comprises less than 0.1% water as determined in a coulometric Karl Fischer (KF) titrator equipped with an oven sample processor set at 225° C.
In certain embodiments, Form B is characterized by dynamic vapor sorption analysis. […] In certain embodiments, Form B comprises less than 0.1% water as determined in a coulometric Karl Fischer (KF) titrator equipped with an oven sample processor set at 225° C.
In certain embodiments, Form C is characterized by dynamic vapor sorption analysis. […] In certain embodiments, Form C comprises less than 0.1% water as determined in a coulometric Karl Fischer (KF) titrator equipped with an oven sample processor set at 225° C.

physchem [2] = format: physicochemical; conditions: organic solvent or mixture
Source text: Due to the poor water solubility of Compound 1, Form C, a cosolvent system was required to solubilize the drug compound in a solution prior to lyophilization. Several solubilizing agents and solvents that were considered in this example include hydroxypropyl-beta-cyclodextrin (HPβCD), Sulfobutylether-β-cyclodextrin sodium salt (SBEβCD; Captisol®), Tert-butyl alcohol (TBA), and dimethylacetamide (DMA).
When the SBEβCD concentration increased from 30% to 40%, the enhancement in drug solubility was very limited.

[3] = pH 5
physchem [4] = conditions: aqueous buffer

Row | Compound | water uptake (DVS) [1] | solubility (physchem [2]) [mg/mL] | Hygroscopicity [1] | Solution Stability [3] | solubility (physchem [4]) [mg/mL]
1 | O=C1CCC(N2Cc3cc(CNC(=O)C(F)(F)c4ccc(Cl)cc4)ccc3C2=O)C(=O)N1 (single isomer, unassigned) [Form C, 2-(4-Chlorophenyl)-N-((2-(2,6-dioxopiperidin-3-yl)-1-oxoisoindolin-5-yl)methyl)-2,2-difluoroacetamide] | about 0.6 % w/w | < 166 | – | – | –
2 | O=C1CCC(N2Cc3cc(CNC(=O)C(F)(F)c4ccc(Cl)cc4)ccc3C2=O)C(=O)N1 (single isomer, unassigned) [Form A, 2-(4-Chlorophenyl)-N-((2-(2,6-dioxopiperidin-3-yl)-1-oxoisoindolin-5-yl)methyl)-2,2-difluoroacetamide] | about 1.2 % w/w | – | – | – | –
3 | O=C1CCC(N2Cc3cc(CNC(=O)C(F)(F)c4ccc(Cl)cc4)ccc3C2=O)C(=O)N1 (stereo not shown) [Form B, 2-(4-chlorophenyl)-N-((2-(2,6-dioxopiperidin-3-yl)-1-oxoisoindolin-5-yl)methyl)-2,2-difluoroacetamide] | about 1.4 % w/w | – | – | – | –
4 | O=C1CCC(N2Cc3cc(CNC(=O)C(F)(F)c4ccc(Cl)cc4)ccc3C2=O)C(=O)N1 (stereo not shown) [Compound 1, 2-(4-chlorophenyl)-N-((2-(2,6-dioxopiperidin-3-yl)-1-oxoisoindolin-5-yl)methyl)-2,2-difluoroacetamide] | – | – | Not hygroscopic | DS is not stable in solution at pH of 5.0 or above. | ≤ 0.001
